The text below walks through data of patent US20230399312A1, “SUBSTITUTED PYRIMIDINES AND METHODS OF USE” (THERAVANCE BIOPHARMA R&D IP, LLC, priority 2020, published 2023).

The target in assay [1] is T1, recombinant human ALK5 (TGF-βR1) protein (Homo sapiens, UniProt P36897).
T1 construct: purchased Life Technologies PR9075A
T1 sequence (P36897 34-503): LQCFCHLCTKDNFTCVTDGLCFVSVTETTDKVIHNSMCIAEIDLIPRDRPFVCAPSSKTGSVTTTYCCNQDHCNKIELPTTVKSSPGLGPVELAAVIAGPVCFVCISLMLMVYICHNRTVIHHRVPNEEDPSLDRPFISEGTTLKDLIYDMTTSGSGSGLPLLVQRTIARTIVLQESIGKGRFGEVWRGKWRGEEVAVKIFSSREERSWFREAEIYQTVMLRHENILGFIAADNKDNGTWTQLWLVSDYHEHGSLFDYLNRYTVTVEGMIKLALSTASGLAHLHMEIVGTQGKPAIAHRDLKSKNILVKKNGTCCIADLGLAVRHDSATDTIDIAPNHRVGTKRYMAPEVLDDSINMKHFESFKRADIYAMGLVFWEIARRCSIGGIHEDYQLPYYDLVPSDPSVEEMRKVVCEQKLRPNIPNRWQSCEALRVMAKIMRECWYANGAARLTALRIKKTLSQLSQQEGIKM
The assay is described as follows: Biochemical ALK5 (TGF-βR1) assay to measure pKi (LANCE Ultra ULight kinase assay). The note with it: apparent pKi, converted from pIC50 by Cheng-Prusoff. As for the experimental part:
The assays were performed in a 384-well plate (24 columns×16 wells/rows). An Echo®550 Liquid Handler (Labcyte) was used to prepare various intermediate concentrations of compounds of the present disclosure in 100% DMSO. From the intermediate concentrations, a range of concentrations (from […] to 25 μM corresponding to volumes up to 105 nL) were prepared and ejected into a final assay plate to be used to create individual dose response curves for each of the subject compounds. To a separate column within the assay plate, 105 nL of DMSO in each well was used to establish a maximum assay signal. Additionally, 105 nL of 100 μM SD-208, a selective TGF-βR1 inhibitor (Catalog #S7624, Selleck Chemicals), was used in another column of wells to establish a minimal assay signal.
With a multidrop dispenser, 8 μL of enzyme mixture (1.25× final) was added to each well. […] The plate was then sealed with an adhesive seal and allowed to equilibrate for 60 minutes at room temperature.
Next, 2 μL of 125 μM ATP (5×final, 125 μM ATP prepared in assay buffer with 2 mM DTT) was added to the incubated mixtures, covered with a MicroClime® Environmental Lid (Product No. LLS-0310, Labcyte) and immediately transferred to 37° C. The reactions were allowed to proceed at 37° C. for 60 minutes before terminating with the addition of 10 μL of detection antibody (LANCE® (lanthanide chelate excite) Ultra Europium-anti-phospo-DNA Topoisomerase 2-alpha (Thr1342)) in detection mixture (12 mM EDTA, 4 nM detection antibody prepared in detection buffer (50 mM Tris-HCl, 150 mM NaCl, 0.5% BSA (Fraction V), pH 7.0)) at room temperature. The plate was then read on a Perkin Elmer EnVision Plate Reader using europium specific reader settings with excitation and emission wavelengths set to 320 or 340 nm and 665 nm, respectively.
For dose-response analyses, percent inhibition versus compound concentrations were plotted, and pIC50 values were determined from a 4-parameter robust fit model with GraphPad Prism V5 Software (GraphPad Software, Inc., La Jolla, CA). This model obtains pIC50 values by fitting the sigmoidal dose-response (variable slope) equation to the data. Results were expressed as pIC50 (negative logarithm of IC50) and subsequently converted to pKi (negative logarithm of dissociate constant, Ki) using the Cheng-Prusoff equation. The higher the value of pKi (lower value of Ki), the greater the inhibition of ALK5 activity.

Assay [2] concerns TGF-β-stimulated SMAD3 phosphorylation in BEAS-2B cells. The assay is described as follows: Cellular ALK5 potency assay, inhibition of TGF-β stimulated pSMAD3 formation in BEAS-2B cells. The class given is cell-based. The note with it: Homo sapiens, pSMAD3, TGF-β 10 ng/mL, read-out: BEAS2B pIC50 (converted). As for the experimental part: The potency of compounds of the present disclosure for inhibition of TGF-β-stimulated SMAD3 phosphorylation was measured in BEAS-2B cells, a human lung epithelial cell line. TGF-β signals through activin receptor-like kinase 5 (ALK5) immediately prior to SMAD3 phosphorylation.
BEAS-2B cells were grown using 50% DMEM (Life Technologies) and 50% F-12 (Life Technologies) media, supplemented with 10% Fetal Bovine Serum (ATCC), 25 mM HEPES (Life Technologies), and 1×Pen-Strep (Life Technologies). Cells were cultured in a humidified incubator set at 37° C., 5% CO2, and trypsonized using 0.25% Trypsin with 0.5% polyvinylpyrrolidone (PVP).
For the assay, BEAS-2B cells were seeded at 7,500 cells/well (25 μL/well) in a 384-well plate and cultured overnight. Before dosing, growth media was aspirated and the wells were rinsed with HBSS Buffer (HBSS with Calcium and Magnesium, Life Technologies) supplemented with 25 mM HEPES (Life Technologies) and 1% Bovine Serum Albumin (Roche). Compounds were serially diluted in DMSO, then further diluted with supplemented HBSS Buffer (50 μL/well) to create a compound plate 3× of the final assay concentration, at 0.3% DMSO. The diluted compounds were then added to the cells (8 μL/well) and incubated at 37° C., 5% CO2 for 1 hour. After the compound incubation, TGF-β (R&D Systems) reconstituted in supplemented HBSS Buffer was added to the cells ([…], final concentration 10 ng/mL) and incubated for a further 30 minutes, after which the cells were immediately lysed with AlphaLISA lysis buffer (PerkinElmer). AlphaLISA Acceptor and Detector beads (PerkinElmer) were added 2 hours apart, then incubated overnight to be read the next day. The potency of the compound was determined through analysis of dose-dependent quantified changes in pSMAD3 signal from baseline (non-compound treated TGF-β stimulated cells). Data are expressed as pIC50 (negative decadic logarithm IC50) values.

SMILES strings stand for the structures.

Turning to `Cc1cccc(-c2nc(Nc3ccnc(Nc4ccc(C(=O)NC5CNC5)cc4)n3)c3cccn3n2)n1` [Compound 1034, N-(azetidin-3-yl)-4-[[4-[[2-(6-methyl-2-pyridyl)pyrrolo[2,1-f][1,2,4]triazin-4-yl]amino]pyrimidin-2-yl]amino]benzamide], in assay [1], the Ki was 0.0398 to 0.316 nM. Moreover, the IC50 in assay [2] is 25.1 to 158 nM.
For the compound `Cc1cccc(-c2nccc(Nc3ccnc(Nc4cccc(NC(=O)NC5CNC5)c4)n3)n2)n1` [Compound 125, 1-(azetidin-3-yl)-3-[3-[[4-[[2-(6-methyl-2-pyridyl)pyrimidin-4-yl]amino]pyrimidin-2-yl]amino]phenyl]urea], the Ki in assay [1] is 0.0398 to 0.316 nM. Also, the IC50 in assay [2] was 25.1 to 158 nM.
`Cc1cccc(-c2nccc(Nc3ccnc(Nc4ccc(N(C)CC5CNC5)cc4)n3)n2)n1` [Compound 202, N2-(4-((azetidin-3-ylmethyl)(methyl)amino)phenyl)-N4-(2-(6-methylpyridin-2-yl)pyrimidin-4-yl)pyrimidine-2,4-diamine]: in assay [1], the Ki was 0.0398 to 0.316 nM. Moreover, in assay [2], the IC50 is 25.1 to 158 nM.
Take `Cc1cccc(-c2nccc(Nc3ccnc(Nc4nc(C(=O)N5CCNCC5)cs4)n3)n2)n1` [Compound 510, [2-[[4-[[2-(6-methyl-2-pyridyl)pyrimidin-4-yl]amino]pyrimidin-2-yl]amino]thiazol-4-yl]-piperazin-1-yl-methanone]: the Ki in assay [1] was 0.0398 to 0.316 nM. For the same compound, in assay [2], the IC50 is 25.1 to 158 nM.
As for `Cc1cccc(-c2nccc(Nc3ccnc(Nc4cncc(C(=O)OC[C@@H]5CCNC5)c4)n3)n2)n1` [Compound 570, [(3R)-pyrrolidin-3-yl]methyl 5-[[4-[[2-(6-methyl-2-pyridyl)pyrimidin-4-yl]amino]pyrimidin-2-yl]amino]pyridine-3-carboxylate], the Ki in assay [1] was 0.398 to 3.16 nM. In addition, in assay [2], the IC50 is 25.1 to 158 nM.
For `Cc1cccc(-c2nccc(Nc3ccnc(Nc4ccc5c(c4)CC4(CCNC4)C5)n3)n2)n1` (stereo not shown) [Compound 277, N2-(1,3-dihydrospiro[indene-2,3′-pyrrolidin]-5-yl)-N4-(2-(6-methylpyridin-2-yl)pyrimidin-4-yl)pyrimidine-2,4-diamine], in that order: 0.0398 to 0.316 nM and 25.1 to 158 nM.
Take `Cc1cccc(-c2nccc(Nc3ccnc(Nc4csc(C(=O)O[C@H]5CC[C@@](C)(N)CC5)c4)n3)n2)n1` [Compound 566, (4-amino-4-methyl-cyclohexyl) 4-[[4-[[2-(6-methyl-2-pyridyl)pyrimidin-4-yl]amino]pyrimidin-2-yl]amino]thiophene-2-carboxylate]: the Ki in assay [1] was 0.0398 to 0.316 nM. Further, the IC50 in assay [2] was 25.1 to 158 nM.
Consider `Cc1cccc(-c2nccc(Nc3ccnc(Nc4cccc(C(=O)OCCN5CCNCC5)c4)n3)n2)n1` [Compound 553, 2-piperazin-1-ylethyl 3-[[4-[[2-(6-methyl-2-pyridyl)pyrimidin-4-yl]amino]pyrimidin-2-yl]amino]benzoate], for which the Ki in assay [1] is 0.398 to 3.16 nM. In assay [2], the IC50 was 25.1 to 158 nM.
For `Cc1cccc(-c2nccc(Nc3ccnc(Nc4cnn(CCC5CCNCC5)c4)n3)n2)n1` [Compound 390, N4-[2-(6-methyl-2-pyridyl)pyrimidin-4-yl]-N2-[1-[2-(4-piperidyl)ethyl]pyrazol-4-yl]pyrimidine-2,4-diamine], in that order: 0.0398 to 0.316 nM and 200 to 1260 nM.
Turning to `Cc1cccc(-c2nccc(Nc3ccnc(Nc4ccc(Cl)c(CO)c4)n3)n2)n1` [Compound 295, [2-chloro-5-[[4-[[2-(6-methyl-2-pyridyl)pyrimidin-4-yl]amino]pyrimidin-2-yl]amino]phenyl]methanol], the Ki in assay [1] is 0.0398 to 0.316 nM. Also, the IC50 in assay [2] is 25.1 to 158 nM.
Turning to `Cc1cccc(-c2nccc(Nc3ccnc(Nc4cccc(NC(=O)C5CCNCC5)c4)n3)n2)n1` [Compound 288, N-[3-[[4-[[2-(6-methyl-2-pyridyl)pyrimidin-4-yl]amino]pyrimidin-2-yl]amino]phenyl]piperidine-4-carboxamide], in assay [1], the Ki was 0.0398 to 0.316 nM. Besides, in assay [2], the IC50 was at most 20 nM.
As for `Cc1nc(-c2nccc(Nc3ccnc(Nc4ccc(N5CCC(N6CCN(C)CC6)CC5)cc4)n3)n2)ccc1F` [Compound 542, N4-[2-(5-fluoro-6-methyl-2-pyridyl)pyrimidin-4-yl]-N2-[4-[4-(4-methylpiperazin-1-yl)-1-piperidyl]phenyl]pyrimidine-2,4-diamine], the Ki in assay [1] is 0.0398 to 0.316 nM. Further, the IC50 in assay [2] is 25.1 to 158 nM.
For the compound `Cc1cccc(-c2nccc(Nc3ccnc(Nc4ccc(N5CCN(C6CCOC6=O)CC5)cc4)n3)n2)n1` (stereo not shown) [Compound 365, 3-[4-[4-[[4-[[2-(6-methyl-2-pyridyl)pyrimidin-4-yl]amino]pyrimidin-2-yl]amino]phenyl]piperazin-1-yl]tetrahydrofuran-2-one], the Ki in assay [1] is 0.0398 to 0.316 nM. For the same compound, the IC50 in assay [2] is at most 20 nM.
For `Cc1cccc(-c2nccc(Nc3ccnc(Nc4cncc(CN5CC(C(=O)O[C@@H]6CCNC6)C5)c4)n3)n2)n1` [Compound 642, [(3R)-pyrrolidin-3-yl] 1-[[5-[[4-[[2-(6-methyl-2-pyridyl)pyrimidin-4-yl]amino]pyrimidin-2-yl]amino]-3-pyridyl]methyl]azetidine-3-carboxylate], the Ki in assay [1] is 0.0398 to 0.316 nM. Also, in assay [2], the IC50 is 25.1 to 158 nM.
On to `Cc1cccc(-c2nccc(Nc3ccnc(Nc4ccc(CN5CCN(C(C)C)CC5)cc4)n3)n2)n1` [Compound 370, N2-[4-[(4-isopropylpiperazin-1-yl)methyl]phenyl]-N4-[2-(6-methyl-2-pyridyl)pyrimidin-4-yl]pyrimidine-2,4-diamine], for which the Ki in assay [1] is 0.0398 to 0.316 nM. Moreover, the IC50 in assay [2] was 25.1 to 158 nM.
With `Cc1cccc(-c2nccc(Nc3ccnc(Nc4cc(C(=O)O)cs4)n3)n2)n1` [Compound 532, 5-[[4-[[2-(6-methyl-2-pyridyl)pyrimidin-4-yl]amino]pyrimidin-2-yl]amino]thiophene-3-carboxylic acid], the Ki in assay [1] was 0.398 to 3.16 nM. The IC50 in assay [2] was 200 to 1260 nM.
Take `CNCCNS(=O)(=O)c1cccc(Nc2nccc(Nc3ccnc(-c4cccc(C)n4)n3)n2)c1` [Compound 273, N-[2-(methylamino)ethyl]-3-[[4-[[2-(6-methyl-2-pyridyl)pyrimidin-4-yl]amino]pyrimidin-2-yl]amino]benzenesulfonamide]: in assay [1], the Ki is 0.0398 to 0.316 nM. For the same compound, the IC50 in assay [2] is 25.1 to 158 nM.
